From the supplement of paper PMC10307832

Legend:
Assay in all cases: relative viability (nuclei count vs DMSO), 5 days (fraction); higher = more cells survive
NCI-H23 = test system: NCI-H23
Method in brief: (§1)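 Lung cancer cell lines in 1536-well plates were dosed by pin tool the day after seeding, either with one drug alone or with a fixed anchor-drug dose plus five library-drug doses (not always all listed) in √10 steps. After 5 days, cells were fixed and their nuclei stained in one step (final 0.05% Triton X-100, 1% formaldehyde, 1 ug/ml Hoechst), then counted on 4× images. Relative viability is the nuclei count in treated wells divided by that in vehicle wells. Values are medians of duplicate plates.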

NCI-H322M = test system: NCI-H322M
Method in brief: as §1

EBC-1 = test system: EBC-1
Method in brief: as §1

Calu-6 = test system: Calu-6
Method in brief: as §1

NCI-H596 = test system: NCI-H596
Method in brief: as §1

NCI-H1355 = test system: NCI-H1355
Method in brief: as §1

NCI-H1993 = test system: NCI-H1993
Method in brief: as §1

NCI-H1299 = test system: NCI-H1299
Method in brief: as §1

IA-LM = test system: IA-LM
Method in brief: as §1

UMC-11 = test system: UMC-11
Method in brief: as §1

NCI-H1703 = test system: NCI-H1703
Method in brief: as §1

LCLC-97TM1 = test system: LCLC-97TM1
Method in brief: as §1

Structure (SMILES): Cc1sc2c(c1C)C(c1ccc(Cl)cc1)=N[C@@H](CC(=O)OC(C)(C)C)c1nnc(C)n1-2 [JQ1] + CC(C)C[C@H](NC(=O)[C@H](Cc1ccccc1)NC(=O)c1cnccn1)B(O)O [Bortezomib] (partner 0.002 µM)
- relative viability (NCI-H23; first compound 0.04 µM): 1.07
- relative viability (NCI-H23; first compound 0.1265 µM): 0.86
- relative viability (NCI-H23; first compound 0.4 µM): 0.666
- relative viability (NCI-H23; first compound 1.265 µM): 0.241
- relative viability (NCI-H23; first compound 4 µM): 0.332
- relative viability (NCI-H322M; first compound 0.04 µM): 1.33
- relative viability (NCI-H322M; first compound 0.1265 µM): 1.24
- relative viability (NCI-H322M; first compound 0.4 µM): 1.35
- relative viability (NCI-H322M; first compound 1.265 µM): 1.04
- relative viability (NCI-H322M; first compound 4 µM): 0.94
- relative viability (EBC-1; first compound 0.04 µM): 0.451
- relative viability (EBC-1; first compound 0.1265 µM): 0.245
- relative viability (EBC-1; first compound 0.4 µM): 0.219
- relative viability (EBC-1; first compound 1.265 µM): 0.168
- relative viability (EBC-1; first compound 4 µM): 0.19
- relative viability (Calu-6; first compound 0.04 µM): 1.04
- relative viability (Calu-6; first compound 0.1265 µM): 0.931
- relative viability (Calu-6; first compound 0.4 µM): 0.815
- relative viability (Calu-6; first compound 1.265 µM): 0.663
- relative viability (Calu-6; first compound 4 µM): 0.391
- relative viability (NCI-H596; first compound 0.04 µM): 0.945
- relative viability (NCI-H596; first compound 0.1265 µM): 0.781
- relative viability (NCI-H596; first compound 0.4 µM): 0.955
- relative viability (NCI-H596; first compound 1.265 µM): 0.673
- relative viability (NCI-H596; first compound 4 µM): 0.344
- relative viability (NCI-H1355; first compound 0.04 µM): 1.17
- relative viability (NCI-H1355; first compound 0.1265 µM): 1.07
- relative viability (NCI-H1355; first compound 0.4 µM): 1.05
- relative viability (NCI-H1355; first compound 1.265 µM): 0.86
- relative viability (NCI-H1355; first compound 4 µM): 0.669
- relative viability (NCI-H1993; first compound 0.04 µM): 1.08
- relative viability (NCI-H1993; first compound 0.1265 µM): 1.13
- relative viability (NCI-H1993; first compound 0.4 µM): 1.04
- relative viability (NCI-H1993; first compound 1.265 µM): 0.738
- relative viability (NCI-H1993; first compound 4 µM): 0.458
- relative viability (NCI-H1299; first compound 0.04 µM): 1.03
- relative viability (NCI-H1299; first compound 0.1265 µM): 0.924
- relative viability (NCI-H1299; first compound 0.4 µM): 0.963
- relative viability (NCI-H1299; first compound 1.265 µM): 0.499
- relative viability (NCI-H1299; first compound 4 µM): 0.363
- relative viability (IA-LM; first compound 0.04 µM): 0.643
- relative viability (IA-LM; first compound 0.1265 µM): 0.428
- relative viability (IA-LM; first compound 0.4 µM): 0.0917
- relative viability (IA-LM; first compound 1.265 µM): 0.0837
- relative viability (IA-LM; first compound 4 µM): 0.0676
- relative viability (UMC-11; first compound 0.04 µM): 0.708
- relative viability (UMC-11; first compound 0.1265 µM): 0.522
- relative viability (UMC-11; first compound 0.4 µM): 0.367
- relative viability (UMC-11; first compound 1.265 µM): 0.216
- relative viability (UMC-11; first compound 4 µM): 0.136
- relative viability (NCI-H1703; first compound 0.04 µM): 0.248
- relative viability (NCI-H1703; first compound 0.1265 µM): 0.206
- relative viability (NCI-H1703; first compound 0.4 µM): 0.19
- relative viability (NCI-H1703; first compound 1.265 µM): 0.122
- relative viability (NCI-H1703; first compound 4 µM): 0.102
- relative viability (LCLC-97TM1; first compound 0.04 µM): 0.492
- relative viability (LCLC-97TM1; first compound 0.1265 µM): 0.533
- relative viability (LCLC-97TM1; first compound 0.4 µM): 0.336
- relative viability (LCLC-97TM1; first compound 1.265 µM): 0.0995
- relative viability (LCLC-97TM1; first compound 4 µM): 0.0548
